{"source": "patent US20220168430A1", "about": "“THERAPEUTIC METHODS FOR TREATING HEPATITIS B” (priority 2019, published 2022)", "tested_on": "HBV rcDNA", "assay": "Dual agent combination in HepDE19 cells, rcDNA by Quantigene 2.0 bDNA assay (Examples 5-8)", "assay_type": "cell-based, HBV; HepDE19 (HepG2 human hepatocarcinoma derived)", "details": "Hepatitis B virus; for inhibition at 0.005 µM: Compound 1 0.005 μM alone; for inhibition at 0.01 µM: Compound 1 0.010 μM alone; for inhibition at 0.02 µM: Compound 1 0.020 μM alone; for inhibition at 0.039 µM: Compound 1 0.039 μM alone; for inhibition at 0.156 µM: Compound 1 0.156 μM alone", "protocol": "In vitro dual agent combination studies were conducted using the method of Prichard and Shipman 1990 (Prichard M N, Shipman C, Jr. 1990. Antiviral Res 14:181-205). The HepDE19 cell culture system is a HepG2 (human hepatocarcinoma) derived cell line that supports HBV DNA replication and cccDNA formation under control the control of a CMV Tet-off promoter system (Guo et al. 2007. J Virol 81:12472-84). HepDE19 (50,000 cells/well) were plated in 96 well collagen-coated tissue-culture treated microtiter plates in DMEM/F12 medium supplemented with 10% fetal bovine serum+1% penicillin-streptomycin with tetracycline (1 μg/mL) and incubated in a humidified incubator at 37° C. and 5% CO2 overnight. Next day, the cells were switched to fresh medium without tetracycline and incubated for 4 hrs at 37° C. and 5% CO2. The cells were switched to fresh medium and treated with inhibitor A and inhibitor B, at concentration range spanning their respective EC50 values. […] The two inhibitors were tested both singly as well as in combinations in a checkerboard fashion such that each concentration of inhibitor A was combined with each concentration of inhibitor B to determine their combination effects on inhibition of rcDNA production. There were four replicates of each concentration combination in each experiment. The plates were incubated for 7 days in a humidified incubator at 37° C. and 5% CO2. The level of rcDNA present in the wells was measured using a Quantigene 2.0 bDNA assay kit (Affymetrix, Santa Clara, Calif.) with HBV specific custom probe set (genotype D ayw) and according to the manufacturer's instructions and read using a luminescence plate reader and the relative luminescence units (RLU) data generated from each well was calculated as % inhibition of the untreated control wells and analyzed using the MacSynergy II program to determine whether the combinations were synergistic, additive or antagonistic using the interpretive guidelines established by Prichard and Shipman (Prichard M N, Shipman C, Jr. 1990. […] Each experiment was repeated at least three times and the averages and standard deviations of individual determinations was calculated to derive the conclusion. Concurrently, in each experiment, the effect of inhibitor combinations on cell viability was assessed using replicate plates in triplicates that were used to determine the ATP content as a measure of cell viability using the Cell-Titer Glo reagent (Promega, Madison, Wis.) as per the manufacturer's instructions.", "key": {"[1]": {"details": "HepDE19, Expt 2, read-out: AVERAGE % INHIBITION"}, "[2]": {"details": "HepDE19, Expt 3 (with ETV), read-out: ADDITIVE INHIBITION"}, "[3]": {"details": "HepDE19, Expt 3 (with ETV), read-out: AVERAGE % INHIBITION"}, "[4]": {"details": "HepDE19, Expt 3 (with TDF), read-out: ADDITIVE INHIBITION"}, "[5]": {"details": "HepDE19, Expt 3 (with TDF), read-out: AVERAGE % INHIBITION"}}, "note": "Where two headings read alike, the source gives them in different places."}
{"smiles": "Cn1cnc(COC(=O)N[C@H]2CCc3c(C(=O)Nc4ccc(F)c(Cl)c4)ccc(F)c32)n1", "note": "[Compound 1]", "values": [{"measurement": "inhibition at 0.005 µM", "setting": "[1]", "value": 7.51, "unit": "%"}, {"measurement": "inhibition at 0.01 µM", "setting": "[1]", "value": 26.3, "unit": "%"}, {"measurement": "inhibition at 0.02 µM", "setting": "[1]", "value": 40.8, "unit": "%"}, {"measurement": "inhibition at 0.039 µM", "setting": "[1]", "value": 39.8, "unit": "%"}, {"measurement": "inhibition at 0.156 µM", "setting": "[1]", "value": 87.4, "unit": "%"}, {"measurement": "inhibition at 1.25 µM", "setting": "HepDE19, Expt 2, Compound 1 1.250 μM alone, read-out: AVERAGE % INHIBITION", "value": 98.4, "unit": "%"}, {"measurement": "inhibition at 0.005 µM", "setting": "[2]", "value": -5.5, "unit": "%"}, {"measurement": "inhibition at 0.005 µM", "setting": "[3]", "value": -5.5, "unit": "%"}, {"measurement": "inhibition at 0.01 µM", "setting": "[2]", "value": 6.89, "unit": "%"}, {"measurement": "inhibition at 0.01 µM", "setting": "[3]", "value": 6.89, "unit": "%"}, {"measurement": "inhibition at 0.02 µM", "setting": "[2]", "value": 14.2, "unit": "%"}, {"measurement": "inhibition at 0.02 µM", "setting": "[3]", "value": 14.2, "unit": "%"}, {"measurement": "inhibition at 0.039 µM", "setting": "[2]", "value": 43.7, "unit": "%"}, {"measurement": "inhibition at 0.039 µM", "setting": "[3]", "value": 43.7, "unit": "%"}, {"measurement": "inhibition at 0.156 µM", "setting": "[2]", "value": 80.6, "unit": "%"}, {"measurement": "inhibition at 0.156 µM", "setting": "[3]", "value": 80.6, "unit": "%"}, {"measurement": "inhibition at 1.25 µM", "setting": "HepDE19, Expt 3 (with ETV), Compound 1 1.25 μM alone, read-out: ADDITIVE INHIBITION", "value": 98.1, "unit": "%"}, {"measurement": "inhibition at 1.25 µM", "setting": "HepDE19, Expt 3 (with ETV), Compound 1 1.25 μM alone, read-out: AVERAGE % INHIBITION", "value": 98.1, "unit": "%"}, {"measurement": "inhibition at 0.005 µM", "setting": "[4]", "value": 18.8, "unit": "%"}, {"measurement": "inhibition at 0.005 µM", "setting": "[5]", "value": 18.8, "unit": "%"}, {"measurement": "inhibition at 0.01 µM", "setting": "[4]", "value": 27.3, "unit": "%"}, {"measurement": "inhibition at 0.01 µM", "setting": "[5]", "value": 27.3, "unit": "%"}, {"measurement": "inhibition at 0.02 µM", "setting": "[4]", "value": 44.5, "unit": "%"}, {"measurement": "inhibition at 0.02 µM", "setting": "[5]", "value": 44.5, "unit": "%"}, {"measurement": "inhibition at 0.039 µM", "setting": "[4]", "value": 66.8, "unit": "%"}, {"measurement": "inhibition at 0.039 µM", "setting": "[5]", "value": 66.8, "unit": "%"}, {"measurement": "inhibition at 0.156 µM", "setting": "[4]", "value": 83.6, "unit": "%"}, {"measurement": "inhibition at 0.156 µM", "setting": "[5]", "value": 83.6, "unit": "%"}, {"measurement": "inhibition at 1.25 µM", "setting": "HepDE19, Expt 3 (with TDF), Compound 1 1.250 μM alone, read-out: ADDITIVE INHIBITION", "value": 98.8, "unit": "%"}, {"measurement": "inhibition at 1.25 µM", "setting": "HepDE19, Expt 3 (with TDF), Compound 1 1.250 μM alone, read-out: AVERAGE % INHIBITION", "value": 98.8, "unit": "%"}, {"measurement": "inhibition at 0.007 µM", "setting": "HepDE19, Expt 3, Cmpd 1 0.007 μM alone, read-out: AVERAGE % INHIBITION", "value": 6.78, "unit": "%"}, {"measurement": "inhibition at 0.067 µM", "setting": "HepDE19, Expt 3, Cmpd 1 0.067 μM alone", "value": 64.7, "unit": "%"}, {"measurement": "inhibition at 0.2 µM", "setting": "HepDE19, Expt 3, Cmpd 1 0.200 μM alone", "value": 92.7, "unit": "%"}, {"measurement": "inhibition at 0.6 µM", "setting": "HepDE19, Expt 3, Cmpd 1 0.600 μM alone", "value": 97.4, "unit": "%"}, {"measurement": "inhibition at 0.007 µM", "setting": "HepDE19, Expt 3, Compound 1 0.007 μM alone, read-out: AVERAGE % INHIBITION", "value": -51.7, "unit": "%"}, {"measurement": "inhibition at 0.067 µM", "setting": "HepDE19, Expt 3, Compound 1 0.067 μM alone", "value": 51.8, "unit": "%"}, {"measurement": "inhibition at 0.2 µM", "setting": "HepDE19, Expt 3, Compound 1 0.200 μM alone", "value": 85.5, "unit": "%"}, {"measurement": "inhibition at 0.6 µM", "setting": "HepDE19, Expt 3, Compound 1 0.600 μM alone", "value": 94.6, "unit": "%"}, {"measurement": "inhibition at 0.007 µM", "setting": "HepDE19, Expt 4, Compound 1 0.007 μM alone, read-out: AVERAGE % INHIBITION", "value": 11.7, "unit": "%"}, {"measurement": "inhibition at 0.067 µM", "setting": "HepDE19, Expt 4, Compound 1 0.067 μM alone", "value": 52.8, "unit": "%"}, {"measurement": "inhibition at 0.2 µM", "setting": "HepDE19, Expt 4, Compound 1 0.200 μM alone", "value": 90, "unit": "%"}, {"measurement": "inhibition at 0.6 µM", "setting": "HepDE19, Expt 4, Compound 1 0.600 μM alone", "value": 96.4, "unit": "%"}]}
